Data reported in ChEMBL document CHEMBL5244255, “An insight on medicinal attributes of 1,2,4-triazoles” (Eur J Med Chem, 2020).
≈ marks a conversion by molar mass, not a printed value.

Experiments:
Rattus norvegicus [1] = species: Rattus norvegicus; experiment: Bronchodilator activity in Sprague-Dawley rat; assay type: functional, organism-based
RS4-11 = experiment: Antiproliferative activity against human RS4-11 cells assessed as cell growth inhibition incubated for 48 hrs by MTT assay; assay type: functional, cell-based; conditions: RS4-11, 48 h
HT-29 = experiment: Antiproliferative activity against human HT-29 cells assessed as cell growth inhibition incubated for 48 hrs by MTT assay; assay type: functional, cell-based; conditions: HT-29, 48 h
MCF7 [2] = experiment: Antiproliferative activity against human MCF7 cells assessed as cell growth inhibition incubated for 48 hrs by MTT assay; assay type: functional, cell-based; conditions: MCF7, 48 h
HeLa = experiment: Antiproliferative activity against human HeLa cells assessed as cell growth inhibition incubated for 48 hrs by MTT assay; assay type: functional, cell-based
Tubulin [3] = molecular target: Tubulin (Bos taurus, UniProt Q6B856+Q862L2+Q862F3); experiment: Inhibition of bovine brain tubulin polymerization incubated for 20 mins in presence of GTP
Jurkat = experiment: Antiproliferative activity against human jurkat cells assessed as cell growth inhibition incubated for 48 hrs by MTT assay; assay type: functional, cell-based
[4] = system: Xanthomonas oryzae pv. oryzae; experiment: Antibacterial activity against Xanthomonas oryzae pv. oryzae assessed as bacterial growth inhibition by turbidimetric method; assay type: functional, organism-based
[5] = system: Middle East respiratory syndrome-related coronavirus; experiment: Antiviral activity of Middle East respiratory syndrome coronavirus; assay type: functional, organism-based
[6] = system: Mycobacterium tuberculosis; experiment: Antimycobacterial activity against Mycobacterium tuberculosis H37Rv measured after 7 days; assay type: functional; conditions: 168 h, time 7 day
Rattus norvegicus [7] = experiment: Antiinflammatory activity in rat assessed as reduction in carrageenan induced edema at 10 mg/kg, po measured after 4 to 5 hrs relative to control; assay type: functional; design: scale not given: the % may be the effect or the level left; conditions: time 4-5 hrs
MCF7 [8] = experiment: Anticancer activity against human MCF7 cells assessed a cell growth inhibition incubated for 48 hrs by SRB assay; assay type: functional, cell-based; conditions: MCF7, 48 h
[9] = system: Xanthomonas oryzae pv. oryzae; experiment: Antibacterial activity against Xanthomonas oryzae pv. oryzae assessed as bacterial growth inhibition; assay type: functional, organism-based
[10] = system: Mycobacterium tuberculosis; experiment: Antimycobacterial activity against Mycobacterium tuberculosis H37Rv by test tube dilution technique; assay type: functional
[11] = Inhibition of 5 alpha reductase (unknown origin)
HCT-116 = experiment: Anticancer activity against human HCT-116 cells assessed as cell growth inhibition
Mus musculus [12] = species: Mus musculus; experiment: Anticonvulsant activity in mouse assessed as MES-induced seizures measured after 30 mins; assay type: functional; conditions: 0.5 h
Mus musculus [13] = species: Mus musculus; experiment: Antiseizure activity against ScPTZ-induced seizure in mouse; assay type: functional; conditions: route sc
BT-20 [14] = experiment: Potency index, ratio of test compound IC50 to cisplatin IC50 for antiproliferative against human BT-20 cells; assay type: functional
DU-145 = experiment: Anticancer activity against human DU-145 cells assessed as cell growth inhibition incubated for 48 hrs by MTT assay; assay type: functional, cell-based; conditions: DU-145, 48 h
BT-20 [15] = experiment: Anticancer activity against human BT-20 cells assessed as cell growth inhibition incubated for 48 hrs by MTT assay; assay type: functional, cell-based; conditions: BT-20, 48 h
A549 = experiment: Anticancer activity against human A549 cells assessed as cell growth inhibition incubated for 48 hrs by MTT assay; assay type: functional, cell-based; conditions: A549, 48 h
[16] = Anticancer activity against human SK-MEL-128 cells assessed as cell growth inhibition incubated for 48 hrs by MTT assay; assay type: functional, cell-based; conditions: SK-MEL-128, 48 h
[17] = Inhibition of BRAF V600E mutant (unknown origin) incubated for 25 mins in presence of ATP by ELISA assay; design: species or system Homo sapiens
[18] = molecular target: Epidermal growth factor receptor (Homo sapiens, UniProt P00533); experiment: Inhibition of EGFR (unknown origin) […] insect sf9 cells incubated for 1 hrs in presence of ATP
Tubulin [19] = experiment: Inhibition of tubulin (unknown origin); assay type: protein-complex assay, Homo sapiens
DNA topoisomerase II = DNA topoisomerase II (Homo sapiens, UniProt P11388+Q02880); experiment: Inhibition of human Topoisomerase 2 incubated for 30 mins by ELISA assay; assay type: protein assay
DNA gyrase = DNA gyrase (Escherichia coli, UniProt P0AES4+P0AES6); experiment: Inhibition of Escherichia coli DNA gyrase supercoiling activity by Microplate Assay kit method; assay type: protein-complex assay
Rattus norvegicus [20] = experiment: Antiinflammatory activity in rat assessed as reduction in edema at 17 mg/kg, ip measured after 5 hrs relative to control; assay type: functional; design: scale not given: the % may be the effect or the level left

Epidermal growth factor receptor, sequence (P00533 whole entry): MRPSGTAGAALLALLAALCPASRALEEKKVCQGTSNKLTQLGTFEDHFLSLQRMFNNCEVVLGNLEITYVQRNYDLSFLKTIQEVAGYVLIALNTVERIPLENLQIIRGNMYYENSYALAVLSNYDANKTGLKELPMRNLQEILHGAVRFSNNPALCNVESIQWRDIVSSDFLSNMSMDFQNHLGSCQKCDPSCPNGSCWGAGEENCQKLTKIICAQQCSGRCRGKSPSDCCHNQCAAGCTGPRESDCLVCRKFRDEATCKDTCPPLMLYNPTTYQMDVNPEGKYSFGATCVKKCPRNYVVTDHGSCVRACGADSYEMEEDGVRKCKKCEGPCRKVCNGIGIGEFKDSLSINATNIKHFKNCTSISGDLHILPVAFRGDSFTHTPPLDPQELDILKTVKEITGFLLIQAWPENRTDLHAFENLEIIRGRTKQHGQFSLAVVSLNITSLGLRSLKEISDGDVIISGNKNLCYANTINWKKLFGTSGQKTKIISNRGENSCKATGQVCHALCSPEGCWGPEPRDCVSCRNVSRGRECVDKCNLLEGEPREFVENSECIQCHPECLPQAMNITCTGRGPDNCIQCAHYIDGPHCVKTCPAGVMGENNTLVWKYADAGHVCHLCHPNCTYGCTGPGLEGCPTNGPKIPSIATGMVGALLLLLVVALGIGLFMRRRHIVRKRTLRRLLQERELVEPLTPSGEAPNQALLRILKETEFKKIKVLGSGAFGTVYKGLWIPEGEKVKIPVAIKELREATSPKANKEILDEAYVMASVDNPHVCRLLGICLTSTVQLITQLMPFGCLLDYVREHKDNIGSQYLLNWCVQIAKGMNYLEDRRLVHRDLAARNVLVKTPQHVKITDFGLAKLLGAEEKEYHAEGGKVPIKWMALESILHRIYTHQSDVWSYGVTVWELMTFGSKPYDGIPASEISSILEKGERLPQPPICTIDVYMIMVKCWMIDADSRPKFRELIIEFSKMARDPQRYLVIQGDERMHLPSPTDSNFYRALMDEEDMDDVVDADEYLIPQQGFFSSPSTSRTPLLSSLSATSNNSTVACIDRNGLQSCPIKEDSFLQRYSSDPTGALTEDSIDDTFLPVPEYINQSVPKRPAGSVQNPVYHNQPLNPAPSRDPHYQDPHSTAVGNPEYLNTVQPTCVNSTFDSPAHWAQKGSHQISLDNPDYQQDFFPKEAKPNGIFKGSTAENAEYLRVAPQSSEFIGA

## Cc1nc2[nH]cc(-c3n[nH]c(=S)n3-c3ccccc3)c(=O)n2n1
Rattus norvegicus [1]
  EC50: 18600 nM

## COc1ccc(-c2nc(N)n(C(=O)c3cc(OC)c(OC)c(OC)c3)n2)cc1
RS4-11
  IC50: < 1000 nM
HT-29
  IC50: < 1000 nM
MCF7 [2]
  IC50: < 1000 nM
HeLa
  IC50: < 1000 nM
Tubulin [3]
  IC50: 970 nM
Jurkat
  IC50: < 1000 nM

## CCOC(=O)c1nc(Sc2nnc3c(Cl)cccn23)c2ccccc2n1
[4]
  EC50: 7.2 µg/mL (≈ 18.7 µM)

## Sc1nnc(NNc2ccc(Cl)cc2)n1NC1C=CCC1 (stereo not drawn)
[5]
  IC50: 510 nM

## O=[N+]([O-])c1ncn(CCCCNS(=O)(=O)c2scc(Cl)c2Cl)n1
[6]
  MIC: 1.56 µg/mL (≈ 3.9 µM)

## O=C(CSc1nnc(COc2ccccc2)n1-c1ccc(Cl)cc1)Nc1nc2ccccc2s1
Rattus norvegicus [7]
  Activity: 84.43%

## O=[N+]([O-])c1ncn(CCCCNS(=O)(=O)c2sccc2Cl)n1
[6]
  MIC: 3.13 µg/mL (≈ 8.56 µM)

## COc1cc(C(=O)n2nc(-c3ccc(C)cc3)nc2N)cc(OC)c1OC
RS4-11
  IC50: < 1000 nM
HT-29
  IC50: < 1000 nM
MCF7 [2]
  IC50: < 1000 nM
HeLa
  IC50: < 1000 nM
Tubulin [3]
  IC50: 660 nM
Jurkat
  IC50: < 1000 nM

## CC/C(=C(\c1ccccc1)c1ccc(OCCN(C)C)cc1)c1ccccc1 [TAMOXIFEN]
MCF7 [8]
  IC50: 8.38 µg/mL (≈ 22.6 µM)

## S=c1[nH]nc(NCNc2n[nH]c(=S)s2)s1
[4]
  EC50: 89.8 µg/mL (≈ 323 µM)
[9]
  EC50: 85.6 µg/mL (≈ 307 µM)

## Fc1ccc(-c2nn3c(COc4cnccn4)nnc3s2)cc1
[10]
  MIC: 1 µg/mL (≈ 3.05 µM)

## Cn1c(=O)c2nc[nH]c2n(C)c1=O [THEOPHYLLINE]
Rattus norvegicus [1]
  EC50: 425000 nM

## CC(C)(C#N)c1cc(Cn2cncn2)cc(C(C)(C)C#N)c1
[11]
  ED50: 1090 nM

## O=C(CCSc1nnc2n(Cc3ccccc3)c(=O)c3c4c(sc3n12)CCCC4)N1CCN(c2ccccc2)CC1
HCT-116
  IC50: 6120 nM

## O=C(CSc1nc[nH]n1)Nc1nc2ccc(OCc3cccc(F)c3)cc2s1
Mus musculus [12]
  ED50: 50.8 mg/kg
Mus musculus [13]
  ED50: 76 mg/kg

## Nn1c(Cc2ccccc2Br)nn(CC(=O)NNC(=O)c2cc3cc(Cl)cc(Cl)c3oc2=O)c1=O
BT-20 [14]
  Ratio IC50: 5.2
DU-145
  IC50: 3.1 µg/mL (≈ 5.32 µM)
BT-20 [15]
  IC50: 3.1 µg/mL (≈ 5.32 µM)
A549
  IC50: 3.1 µg/mL (≈ 5.32 µM)
[16]
  IC50: 3.1 µg/mL (≈ 5.32 µM)

## CC[C@@H](CO)NCCN[C@@H](CC)CO [ETHAMBUTOL]
[6]
  MIC: 6.25 µg/mL (≈ 30.6 µM)

## COc1ccc(C(=O)n2nc(-c3ccncc3)nc2N)cc1
[17]
  IC50: 1800 nM
[18]
  IC50: 4600 nM
Tubulin [19]
  IC50: 872 nM

## O=C(CSc1nc2ccccc2n2cnnc12)Nc1ccc(S(=O)(=O)Nc2nccs2)cc1
DNA topoisomerase II
  IC50: 1100 nM

## COc1ccc(C(=O)n2nc(-c3cccnc3)nc2N)cc1
[17]
  IC50: 1900 nM
[18]
  IC50: 3600 nM
Tubulin [19]
  IC50: 957 nM

## O=c1c(-c2n[nH]c(=S)n2-c2ccccc2)c[nH]c2ncnn12
Rattus norvegicus [1]
  EC50: 57100 nM

## O=C(CSc1nc[nH]n1)Nc1nc2ccc(OCc3ccc(F)cc3)cc2s1
Mus musculus [12]
  ED50: 54.8 mg/kg
Mus musculus [13]
  ED50: 52.8 mg/kg

## CCn1cc(-c2nc(/N=C/c3ccc(F)cc3)n[nH]2)c(=O)c2ccc(C)nc21
DNA gyrase
  IC50: 9750 nM

## COc1ccc(-c2cc(-c3nnc(SCC(=O)Nc4ccc(/C(C)=N/O)cc4)n3-c3ccccc3)c3cc(C)ccc3n2)cc1
Rattus norvegicus [20]
  Activity: 101%

## Clc1cccc(Cl)c1Nc1ccccc1Cc1nncn1Nc1nc2ccccc2s1
Rattus norvegicus [7]
  Activity: 85.31%

## Sc1nnc(NNc2ccc(I)cc2)n1NC1C=CCC1 (stereo not drawn)
[5]
  IC50: 470 nM

## O=C(Nc1ccccc1)C1=NN(c2ccccc2)/C(=C2/C=NN(Cc3cc4ccccc4oc3=O)C2=O)N1c1ccccc1
[11]
  ED50: 150 nM
